Drawing on PMC12102218 (Nature Communications, 2025), this text covers IC50 for one substance.

In general, IC50 refers to the concentration at which inhibition is half-maximal. A higher IC50 goes with weaker potency.

The target in the test is T1, ENPP1 (Homo sapiens, UniProt P22413).
T1 sequence (P22413 1-925): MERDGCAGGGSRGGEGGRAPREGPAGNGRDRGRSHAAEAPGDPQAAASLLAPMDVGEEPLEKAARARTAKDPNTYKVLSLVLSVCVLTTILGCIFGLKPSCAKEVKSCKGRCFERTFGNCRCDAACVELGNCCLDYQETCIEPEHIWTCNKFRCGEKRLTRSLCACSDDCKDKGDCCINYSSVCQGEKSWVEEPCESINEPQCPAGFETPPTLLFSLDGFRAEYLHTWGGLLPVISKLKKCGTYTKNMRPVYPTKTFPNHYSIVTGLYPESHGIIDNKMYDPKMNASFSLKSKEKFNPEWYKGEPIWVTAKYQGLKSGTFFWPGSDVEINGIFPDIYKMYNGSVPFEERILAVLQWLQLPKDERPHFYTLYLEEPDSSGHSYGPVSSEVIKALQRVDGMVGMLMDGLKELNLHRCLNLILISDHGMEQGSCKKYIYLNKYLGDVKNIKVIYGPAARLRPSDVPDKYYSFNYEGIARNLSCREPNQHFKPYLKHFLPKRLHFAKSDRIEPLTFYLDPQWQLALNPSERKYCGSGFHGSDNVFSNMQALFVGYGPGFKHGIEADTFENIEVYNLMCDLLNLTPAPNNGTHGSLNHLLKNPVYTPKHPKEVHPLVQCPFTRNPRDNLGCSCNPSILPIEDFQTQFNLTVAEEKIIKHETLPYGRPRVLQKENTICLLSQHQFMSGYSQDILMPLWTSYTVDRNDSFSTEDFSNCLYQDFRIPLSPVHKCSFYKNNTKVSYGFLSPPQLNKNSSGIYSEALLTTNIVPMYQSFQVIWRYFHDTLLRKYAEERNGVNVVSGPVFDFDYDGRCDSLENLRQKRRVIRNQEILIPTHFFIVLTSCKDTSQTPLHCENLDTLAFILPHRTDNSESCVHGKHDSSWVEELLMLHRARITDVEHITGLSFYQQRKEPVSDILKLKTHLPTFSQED
The experiment in a line: ENPP1 enzymatic assay, cGAMP hydrolysis. Type of test: biochemical.

Substance QS1 came in with an IC50 of 142 nM.
